Test results from the supplement of paper PMC10307832.

Legend:
Test in all cases: relative viability (nuclei count vs DMSO), 5 days (fraction); higher = more cells survive
[1] = compound: COc1cc(Nc2ncc(F)c(Nc3ccc4c(n3)NC(=O)C(C)(C)O4)n2)cc(OC)c1OC [R406] + Nc1nc2[nH]cc(CCc3ccc(C(=O)N[C@@H](CCC(=O)O)C(=O)O)cc3)c2c(=O)[nH]1 [Pemetrexed] (partner 0.2 µM)
In short: (§1)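 Cells from lung cancer lines were seeded into 1536-well plates and, one day later, dosed by pin tool. Treatments were either a single drug or a fixed dose of an anchor drug with five library-drug doses (not always all listed) in √10 steps. After 5 days, nuclei were stained in a one-step fixation (final 0.05% Triton X-100, 1% formaldehyde, 1 ug/ml Hoechst) and counted on 4× images, and relative viability is the treated-to-vehicle nuclei ratio, as the median of duplicate plates.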

[2] = compound: O=C(/C=C/c1cccnc1)NCCCCC1CCN(C(=O)c2ccccc2)CC1 [Daporinad] + CC(=O)Nc1cccc(-n2c(=O)n(C3CC3)c(=O)c3c(Nc4ccc(I)cc4F)n(C)c(=O)c(C)c32)c1 [Trametinib] (partner 0.02 µM)
In short: as §1

[3] = compound: O=C(/C=C/c1cccnc1)NCCCCC1CCN(C(=O)c2ccccc2)CC1 [Daporinad] + CS(=O)(=O)CCNCc1ccc(-c2ccc3ncnc(Nc4ccc(OCc5cccc(F)c5)c(Cl)c4)c3c2)o1 [Lapatinib] (partner 2 µM)
In short: as §1

[4] = compound: O=C(/C=C/c1cccnc1)NCCCCC1CCN(C(=O)c2ccccc2)CC1 [Daporinad] + Nc1ncn([C@H]2C[C@H](O)[C@@H](CO)O2)c(=O)n1 [Decitabine] (partner 2 µM)
In short: as §1

UMC-11
relative viability ([1]; first compound 0.08 µM): 0.764 | relative viability ([1]; first compound 0.253 µM): 0.808 | relative viability ([1]; first compound 0.8 µM): 0.889 | relative viability ([1]; first compound 2.53 µM): 0.609 | relative viability ([1]; first compound 8 µM): 0.304 | relative viability ([2]; first compound 0.0005 µM): 0.645 | relative viability ([2]; first compound 0.001581 µM): 0.926 | relative viability ([2]; first compound 0.005 µM): 0.775 | relative viability ([2]; first compound 0.01581 µM): 1.14 | relative viability ([3]; first compound 0.0005 µM): 0.995 | relative viability ([3]; first compound 0.001581 µM): 1.06 | relative viability ([3]; first compound 0.005 µM): 1.08 | relative viability ([3]; first compound 0.01581 µM): 1.24 | relative viability ([4]; first compound 0.0005 µM): 0.558 | relative viability ([4]; first compound 0.001581 µM): 0.813 | relative viability ([4]; first compound 0.005 µM): 0.625 | relative viability ([4]; first compound 0.01581 µM): 0.54
